Results published in US4341781A, “Pyridazopyridazine derivatives” (Hoffmann-La Roche Inc., priority 1979, dated 1982).

Biological target: T1, angiotensin converting enzyme (Oryctolagus cuniculus, UniProt P12822)
T1 sequence (P12822 34-1310): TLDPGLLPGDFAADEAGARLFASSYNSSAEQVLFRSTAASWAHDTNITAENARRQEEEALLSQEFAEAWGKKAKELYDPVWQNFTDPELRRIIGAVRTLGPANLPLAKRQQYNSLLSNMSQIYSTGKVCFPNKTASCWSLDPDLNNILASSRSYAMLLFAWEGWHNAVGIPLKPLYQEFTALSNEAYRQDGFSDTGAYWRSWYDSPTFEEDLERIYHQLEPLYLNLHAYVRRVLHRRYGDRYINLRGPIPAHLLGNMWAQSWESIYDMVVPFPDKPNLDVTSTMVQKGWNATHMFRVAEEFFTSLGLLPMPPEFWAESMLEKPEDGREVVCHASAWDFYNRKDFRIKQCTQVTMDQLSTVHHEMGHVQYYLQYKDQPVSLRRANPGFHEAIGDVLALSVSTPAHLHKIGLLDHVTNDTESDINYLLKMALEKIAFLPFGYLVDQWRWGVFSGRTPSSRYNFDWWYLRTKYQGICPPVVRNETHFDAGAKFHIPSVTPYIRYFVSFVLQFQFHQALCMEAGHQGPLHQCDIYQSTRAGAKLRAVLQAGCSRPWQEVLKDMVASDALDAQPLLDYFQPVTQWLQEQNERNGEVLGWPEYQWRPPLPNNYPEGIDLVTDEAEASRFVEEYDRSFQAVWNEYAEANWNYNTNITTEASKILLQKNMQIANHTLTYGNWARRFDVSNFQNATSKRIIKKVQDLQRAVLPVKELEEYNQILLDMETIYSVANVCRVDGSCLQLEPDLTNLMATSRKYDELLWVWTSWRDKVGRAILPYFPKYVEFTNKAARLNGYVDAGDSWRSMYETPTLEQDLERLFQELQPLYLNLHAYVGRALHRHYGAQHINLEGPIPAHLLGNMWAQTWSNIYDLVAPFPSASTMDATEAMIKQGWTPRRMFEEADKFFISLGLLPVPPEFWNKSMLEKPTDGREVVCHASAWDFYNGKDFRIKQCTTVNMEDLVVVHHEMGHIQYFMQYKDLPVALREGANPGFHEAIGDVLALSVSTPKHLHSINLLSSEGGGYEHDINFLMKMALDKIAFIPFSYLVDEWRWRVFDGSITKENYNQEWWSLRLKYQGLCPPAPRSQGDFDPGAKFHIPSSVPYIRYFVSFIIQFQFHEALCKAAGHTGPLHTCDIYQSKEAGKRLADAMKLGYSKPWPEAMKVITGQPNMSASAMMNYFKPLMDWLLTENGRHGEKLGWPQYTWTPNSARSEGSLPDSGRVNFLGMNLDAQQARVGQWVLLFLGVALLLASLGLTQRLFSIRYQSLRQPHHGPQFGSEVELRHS
Assay: Inhibition of angiotensin converting enzyme in vitro (hippuryl-histidyl-leucine cleavage, Cushman and Cheung method modified by Hayakari et al.)
Format: biochemical
Settings: substrate hippuryl-histidyl-leucine 2 mM; potassium phosphate buffer pH 8.3, 300 mM NaCl; 25 minutes at 37° C.
Procedure: The activity of the present pyridazopyridazine derivatives in inhibiting angiotensin converting enzyme in vitro can be determined by the following test.
The method used is based on the method of Cushman and Cheung (Biochem. Pharmacol., 20, 1637-1648) incorporating the modifications introduced by Hayakari, et al. (Anal. Biochem., 84, 361-369). The substrate (hippuryl-histidyl-leucine, 2 mM) is incubated with angiotensin converting enzyme in the presence or absence of various concentrations of test substance in potassium phosphate buffer (pH 8.3; 100 mM) containing sodium chloride (300 mM) for 25 minutes at 37° C. (total […] 500 μl). The reaction is terminated by the addition of 3 ml of potassium phosphate buffer (pH 8.3; 200 mM) at 0° C. 2,4,6-Trichloro-s-triazine (3%) in 1.5 ml of dioxane is added and the mixture is agitated until the yellow chromophore has developed fully. The samples are then centrifuged to remove any precipitate which has formed. The yellow chromophore formed by the reaction of the 2,4,6-trichloro-s-triazine with free hippuric acid is measured spectrophotometrically at 382 nm. IC50 values are defined as the concentration of test substance which reduces by 50% the cleavage of hippuryl-histidylleucine by angiotensin converting enzyme under the aforementioned conditions.

IC50: 62.5 nM
SMILES: O=C(O)C1CCCN2C(=O)CC(CS)C(=O)N12 (racemic) [racemic 8-(mercaptomethyl)-octahydro-6,9-dioxopyridazo[1,2-a]pyridazine-1-carboxylic acid]
